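96-well plates; 48 h exposure; 5 concentrations. Endpoints by linear interpolation between flanking doses. Not reached: highest tested concentration assigned. GI50 = concentration required for 50% inhibition of growth. At the TGI there is no net growth.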
How the values were obtained:
Test in all cases: DTP human tumour cell line panel, 48 h
NCI-H522 lung = tested on: NCI-H522 lung
A498 renal = tested on: A498 renal
SF-539 CNS = tested on: SF-539 CNS
ACHN renal = tested on: ACHN renal
BT-549 breast = tested on: BT-549 breast
K-562 leukemia = tested on: K-562 leukemia
NCI-H23 lung = tested on: NCI-H23 lung
SK-MEL-5 melanoma = tested on: SK-MEL-5 melanoma
SF-295 CNS = tested on: SF-295 CNS
CCRF-CEM leukemia = tested on: CCRF-CEM leukemia

Row | Structure (SMILES) | GI50 (NCI-H522 lung) | TGI (NCI-H522 lung) | GI50 (A498 renal) | TGI (A498 renal) | GI50 (SF-539 CNS) | TGI (SF-539 CNS) | GI50 (ACHN renal) | TGI (ACHN renal) | GI50 (BT-549 breast) | TGI (BT-549 breast) | GI50 (K-562 leukemia) | TGI (K-562 leukemia) | GI50 (NCI-H23 lung) | TGI (NCI-H23 lung) | GI50 (SK-MEL-5 melanoma) | TGI (SK-MEL-5 melanoma) | GI50 (SF-295 CNS) | TGI (SF-295 CNS) | GI50 (CCRF-CEM leukemia) | TGI (CCRF-CEM leukemia)
1 | Nc1nn(C(=O)Nc2c(F)cccc2F)c2ccccc12 | 55.1 µM | > 100 µM | 31.4 µM | > 100 µM | 31.4 µM | > 100 µM | 50.1 µM | > 100 µM | 28.8 µM | > 100 µM | > 100 µM | > 100 µM | 95.6 µM | > 100 µM | 39.7 µM | > 100 µM | 54.8 µM | > 100 µM |  | 
2 | C=C1C(=O)C2=CC1CCC(=O)C1(C)CCC(OC(C)=O)C(C)(C)C1CC2O (stereo not drawn) |  | 2.19 µM |  | 12.6 µM |  | 5.19 µM |  | 6.82 µM |  | 9.33 µM |  |  |  | 8.62 µM |  | 6.09 µM |  | 25.6 µM |  | 
3 | C/C=C(\C)C(=O)O[C@H]1C=CC(=O)O[C@H]1COC(=O)[C@H](C)O | 7.1 µM | 23.7 µM | 15.7 µM | 31.4 µM | 9.73 µM | 23.3 µM | 4.38 µM | 16.6 µM | 9.56 µM | 21.7 µM | 3.69 µM | 17.6 µM | 15.3 µM | 36.9 µM | 4.62 µM | 16.7 µM | 13.1 µM | 28.9 µM |  | 
4 | Cc1ccsc1-c1ccc2c(c1)COC2(CCCN(C)C)c1ccc(F)cc1 (stereo not drawn) | 3.02 µM | 12.4 µM |  |  | 1.8 µM | 3.4 µM | 3.48 µM | 13.3 µM | 4.97 µM | 18.6 µM | 2.46 µM | 8.05 µM | 5.39 µM | 18.1 µM | 1.78 µM | 3.2 µM | 1.77 µM | 3.58 µM | 2.73 µM | 8.56 µM
5 | O=S(=O)(NCCCNc1cc(-c2cn(-c3ccccc3)nc2-c2cccc(O)c2)ccn1)c1ccc(Br)cc1 | 2.11 µM | 4.85 µM | 0.386 µM | 2.89 µM | 1.69 µM | 4.01 µM | 2.97 µM | 15.4 µM | 1.68 µM | 4.32 µM | 0.444 µM | 2.89 µM | 2.19 µM | 12.1 µM | 1.27 µM | 2.63 µM | 1.36 µM | 3.09 µM |  | 
6 | O=C(O)CN(c1ccc(F)cc1)S(=O)(=O)c1ccccc1 |  | > 100 µM |  | > 100 µM |  | > 100 µM |  | > 100 µM |  |  |  | > 100 µM |  | > 100 µM |  | > 100 µM |  | > 100 µM |  | > 100 µM
7 | O=C1C(=O)N(c2ccc(Cl)cc2)C(=O)C(=Nc2cccc3c(=O)[nH][nH]c(=O)c23)C1c1nc2ccccc2o1 (stereo not drawn) |  |  |  | > 100 µM |  | > 100 µM |  | > 100 µM |  |  |  | > 100 µM |  | > 100 µM |  | > 100 µM |  | > 100 µM |  | > 100 µM
8 | CC(=O)OCCCC#CC#Cc1cccc(=O)o1 | 32.1 µM | > 100 µM | 23.9 µM | 39.4 µM |  |  | 19.2 µM | 35 µM | 10.6 µM | 26.6 µM | 5.38 µM | 28.9 µM | 15.8 µM | 33 µM | 16.1 µM | 32.6 µM | 17.8 µM | 32.7 µM |  | 
9 | O=C1c2cc(F)ccc2-c2c1c1ccc([N+](=O)[O-])cc1c(=O)n2CCCBr | 4.87 µM | > 100 µM |  |  |  |  | 3.91 µM | > 100 µM |  |  | 22.4 µM | > 100 µM | 18.4 µM | 85.4 µM | 11.7 µM | 40.3 µM | 17.8 µM | > 100 µM | 15.6 µM | > 100 µM
10 | CN1C(=O)C2(c3ccccc31)C1CC3C(CO1)C1C2C3(CO)CN1C#N (stereo not drawn) |  | > 100 µM |  |  |  |  |  | > 100 µM |  | > 100 µM |  | > 100 µM |  | > 100 µM |  | > 100 µM |  | > 100 µM |  | > 100 µM
11 | [Cu+2].[NH-]C(CC(=O)O)C(=O)O.[NH-]C(CC(=O)O)C(=O)O (stereo not drawn) | 91.8 µM | > 100 µM | 36.7 µM | > 100 µM |  |  | > 100 µM | > 100 µM | > 100 µM | > 100 µM | > 100 µM | > 100 µM | > 100 µM | > 100 µM | 26.5 µM | > 100 µM | > 100 µM | > 100 µM | 0.929 µM | > 100 µM
12 | N#CC1=C(N)Oc2c(sc3c(Br)cccc23)C1c1ccc(Cl)cc1 (stereo not drawn) | 0.367 µM | 2.43 µM | 0.47 µM | 11 µM |  |  | 0.531 µM | 2.46 µM | 0.962 µM | 12.7 µM | 0.322 µM | 3.54 µM | 0.821 µM | 4.86 µM | 0.559 µM | 2.72 µM | 0.276 µM | 0.869 µM | 0.368 µM | 2.36 µM
13 | O=c1cccc2n1CC1CNC[C@H]2C1 |  | > 100 µM |  |  |  |  |  | > 100 µM |  | > 100 µM |  | > 100 µM |  | > 100 µM |  | > 100 µM |  | > 100 µM |  | > 100 µM
14 | COc1cc(O)c2c(c1)C(=O)C1=C(C2=O)C(O)C[C@@](C)(O)C1 (stereo partly drawn) |  | 2.47 µM |  | 3.29 µM |  | 5.74 µM |  | 4.46 µM |  |  |  | 2.46 µM |  | 3.3 µM |  |  |  | 7.32 µM |  | > 24.9 µM
15 | O=C(CSSCC(=O)Nc1ccc(Br)cc1)Nc1ccc(Br)cc1 |  | 24.8 µM |  | 34.1 µM |  | 31.6 µM |  | 30 µM |  |  |  | > 100 µM |  | 35.2 µM |  | 45.8 µM |  | 28 µM |  | 
16 | Nc1ncn([C@H]2C[C@H](OP(=O)(O)OC[C@H]3O[C@@H](n4cnc5c(=O)[nH]c(N)nc54)C[C@@H]3O)[C@@H](CO)O2)c(=O)n1 | > 100 µM | > 100 µM | > 100 µM | > 100 µM | > 100 µM | > 100 µM | 38.4 µM | > 100 µM | > 100 µM | > 100 µM |  |  | > 100 µM | > 100 µM | > 100 µM | > 100 µM | > 100 µM | > 100 µM | 9.01 µM | > 100 µM
